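How tested: cells in 96-well plates exposed to compound for 48 hours at five concentrations. The concentration for 50% growth inhibition is given as GI50.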 The source made the active and inactive calls. Rule as the data show it: active = GI50 up to about 1.1 µM and inactive = higher.
Tests used:
Test in all cases: NCI-60 cell line screen, 48 h
TK-10 = tested on: TK-10
NCI-H460 = tested on: NCI-H460
SK-MEL-5 = tested on: SK-MEL-5
U-251 = tested on: U-251
ACHN = tested on: ACHN
HOP-62 = tested on: HOP-62
DMS-273 = tested on: DMS-273
HT-29 = tested on: HT-29
DMS-114 = tested on: DMS-114
KM12 = tested on: KM12
M19-MEL = tested on: M19-MEL
HCT-116 = tested on: HCT-116
RPMI-8226 = tested on: RPMI-8226
SW-620 = tested on: SW-620
CCRF-CEM = tested on: CCRF-CEM
IGROV-1 = tested on: IGROV-1
SR = tested on: SR
RXF 393 = tested on: RXF 393

Structure (SMILES) | GI50 (TK-10) | GI50 (NCI-H460) | GI50 (SK-MEL-5) | GI50 (U-251) | GI50 (ACHN) | GI50 (HOP-62) | GI50 (DMS-273) | GI50 (HT-29) | GI50 (DMS-114) | GI50 (KM12) | GI50 (M19-MEL) | GI50 (HCT-116) | GI50 (RPMI-8226) | GI50 (SW-620) | GI50 (CCRF-CEM) | GI50 (IGROV-1) | GI50 (SR) | GI50 (RXF 393)
CCN(CC)CC(=O)N1CCc2c([nH]c3ccccc23)C1c1cccnc1 (stereo not given) | > 100 µM (inactive) | > 100 µM (inactive) | > 100 µM (inactive) | > 100 µM (inactive) | > 100 µM (inactive) | > 100 µM (inactive) | > 100 µM (inactive) | > 100 µM (inactive) | > 100 µM (inactive) | > 100 µM (inactive) | > 100 µM (inactive) | > 100 µM (inactive) | 71.8 µM (inactive) | > 100 µM (inactive) | > 100 µM (inactive) | > 100 µM (inactive) | – | –
COc1ccc([C@@]2(O)c3c(ccc(O)c3OC)[C@H]2OC)c(OC)c1 | 27.1 µM (inactive) | > 100 µM (inactive) | 48.6 µM (inactive) | 45.8 µM (inactive) | 86.1 µM (inactive) | > 100 µM (inactive) | – | 37.2 µM (inactive) | 22.1 µM (inactive) | 39.4 µM (inactive) | 48.5 µM (inactive) | 33.5 µM (inactive) | 30.1 µM (inactive) | 46.6 µM (inactive) | 36.6 µM (inactive) | > 100 µM (inactive) | 35.6 µM (inactive) | –
O=C(NC1C2CC3CC(C2)CC1C3)c1ccncn1 (stereo not given) | – | > 100 µM (inactive) | > 100 µM (inactive) | > 100 µM (inactive) | > 100 µM (inactive) | > 100 µM (inactive) | > 100 µM (inactive) | > 100 µM (inactive) | > 100 µM (inactive) | > 100 µM (inactive) | > 100 µM (inactive) | > 100 µM (inactive) | – | > 100 µM (inactive) | > 100 µM (inactive) | > 100 µM (inactive) | – | –
N#CCc1cccc(CC#N)c1Br | – | > 100 µM (inactive) | – | > 100 µM (inactive) | > 100 µM (inactive) | > 100 µM (inactive) | > 100 µM (inactive) | > 100 µM (inactive) | > 100 µM (inactive) | > 100 µM (inactive) | – | > 100 µM (inactive) | > 100 µM (inactive) | > 100 µM (inactive) | > 100 µM (inactive) | > 100 µM (inactive) | > 100 µM (inactive) | 35 µM (inactive)
COc1cc([C@@H]2c3cc4c(cc3[C@@H](NCc3cccc(F)c3)C3COC(=O)[C@@H]32)OCO4)cc(OC)c1O (stereo not given in full) | 9.68 µM (inactive) | 0.37 µM (active) | 7.13 µM (inactive) | 1.23 µM (inactive) | 1.67 µM (inactive) | 1.51 µM (inactive) | 2.21 µM (inactive) | 8.61 µM (inactive) | 6.11 µM (inactive) | 7.01 µM (inactive) | – | 4.5 µM (inactive) | 2.29 µM (inactive) | 5.06 µM (inactive) | 1.27 µM (inactive) | 3.18 µM (inactive) | – | 8.85 µM (inactive)
C[C@@H](CC(O)C1OC1(C)C)[C@@H]1CC[C@]2(C)C3=CCC4C(C)(C)C(O)CC[C@]4(C)C3CCC12C (stereo not given in full) | 20.3 µM (inactive) | 17.3 µM (inactive) | – | 30.5 µM (inactive) | 14.8 µM (inactive) | 42.8 µM (inactive) | 13.3 µM (inactive) | 11.4 µM (inactive) | – | 22.9 µM (inactive) | 18.1 µM (inactive) | 9.89 µM (inactive) | 10.3 µM (inactive) | 38.9 µM (inactive) | 27.5 µM (inactive) | 31.3 µM (inactive) | 16.3 µM (inactive) | 16.7 µM (inactive)
COc1cc(C[S+]2CCCC2)c(SC)cc1C[S+]1CCCC1 | > 100 µM (inactive) | > 100 µM (inactive) | > 100 µM (inactive) | > 100 µM (inactive) | > 100 µM (inactive) | > 100 µM (inactive) | – | > 100 µM (inactive) | > 100 µM (inactive) | > 100 µM (inactive) | > 100 µM (inactive) | > 100 µM (inactive) | > 100 µM (inactive) | > 100 µM (inactive) | > 100 µM (inactive) | > 100 µM (inactive) | – | > 100 µM (inactive)
CC(=O)Oc1ccccc1 [ACETIC ACID PHENYL ESTER] | – | > 100 µM (inactive) | > 100 µM (inactive) | > 100 µM (inactive) | > 100 µM (inactive) | > 100 µM (inactive) | > 100 µM (inactive) | > 100 µM (inactive) | > 100 µM (inactive) | > 100 µM (inactive) | > 100 µM (inactive) | > 100 µM (inactive) | > 100 µM (inactive) | > 100 µM (inactive) | > 100 µM (inactive) | > 100 µM (inactive) | – | > 100 µM (inactive)

From ChEMBL document CHEMBL1201862, “PubChem BioAssay data set” (2004)
